The values below are quoted from earlier work in US8748087B2, “Sequence of reverse transcriptase gene and method of use” (Fudan University, priority 2005, dated 2014).

The test system of the data set is HBV. The note with it: patients with chronic hepatitis B.

As for interferon alpha, the overall response rates result was “less than 30%”.
